# Experimental data as given in patent US12642270B2, “Substituted thiophene carboxamides, thiophene carboxylic acids and derivatives thereof” (Bayer Aktiengesellschaft, priority 2019, dated 2026).
# Assay: Log P by HPLC on reversed phase columns (EEC directive 79/831 Annex V.A8)
# Assay type: physicochemical
# Details: method [a]
# Method: In the above tables, measurement of Log P values was performed according to EEC directive 79/831 Annex V.A8 by HPLC (High Performance Liquid Chromatography) on reversed phase columns with the following methods: • ^[a] Log P value is determined by measurement of LC-UV, in an acidic range, with 0.1% formic acid in water and acetonitrile as eluent (linear gradient from 10% acetonitrile to 95% acetonitrile). • ^[b] Log P value is determined by measurement of LC-UV, in a neutral range, with 0.001 molar ammonium acetate solution in water and acetonitrile as eluent (linear gradient from 10% acetonitrile to 95% acetonitrile). • ^[c] Log P value is determined by measurement of LC-UV, in an acidic range, with 0.1% phosphoric acid and acetonitrile as eluent (linear gradient from 10% acetonitrile to 95% acetonitrile). If more than one Log P value is available within the same method, all the values are given and separated by “+”. Calibration was done with straight-chain alkan2-ones (with 3 to 16 carbon atoms) with known Log P values (measurement of Log P values using retention times with linear interpolation between successive alkanones). Lambda-max-values were determined using UV-spectra from 200 nm to 400 nm and the peak values of the chromatographic signals.
row,SMILES,LogP
1,N#CCNC(=O)c1sc(Cl)c(Cl)c1I [1.0188],2.72^[a]
2,N#CCNC(=O)c1sc(Br)c(Br)c1F [1.0205],2.41^[a]
3,N#CCNC(=O)c1sc(Cl)c(Br)c1Br [1.0206],2.72^[a]
4,COC(=O)CNC(=O)c1sc(Cl)c(Br)c1Br [1.0207],2.91^[a]
5,COC(=O)C(NC(=O)c1sc(Cl)c(Br)c1Br)C1CC1 (stereo not shown) [1.0211],3.89^[a]
6,CCOC(=O)C1(NC(=O)c2sc(Cl)c(Br)c2Br)CCC1 [1.0212],4.24^[a]
7,O=C(NC(Cc1ccccc1)C(=O)O)c1sc(Br)c(Br)c1F (stereo not shown) [1.0226],3.22^[a]
8,O=C(O)CNC(=O)c1sc(Br)c(Br)c1F [1.0227],2.01^[a]
9,O=C(NC(Cc1c[nH]c2ccccc12)C(=O)O)c1sc(Br)c(Br)c1F (stereo not shown) [1.0231],3.05^[a]
10,COC(=O)CNC(=O)c1cc(Cl)c(Br)s1 [1.0239],2.23^[a]
11,COC(=O)CNC(=O)c1cc(Br)c(Cl)s1 [1.0240],2.36^[a]
12,COC(=O)CNC(=O)c1sc(C#N)c(Br)c1C [1.0241],2.14^[a]
13,COC(=O)C1(NC(=O)c2sc(C#N)c(Br)c2C)CC1 [1.0243],2.26^[a]
14,CCOC(=O)C1(NC(=O)c2sc(C#N)c(Br)c2C)CCC1 [1.0244],3.07^[a]
15,O=C(O)CNC(=O)c1cc(Cl)c(Br)s1 [1.0247],1.79^[a]
16,O=C(O)CNC(=O)c1cc(Br)c(Cl)s1 [1.0248],1.81^[a]
17,Cc1c(C(=O)NCC(=O)O)sc(C#N)c1Br [1.0249],1.61^[a]
18,Cc1c(C(=O)NC2(C(=O)O)CC2)sc(C#N)c1Br [1.0250],1.84^[a]
19,CCSC(=O)C1(NC(=O)c2sc(Cl)c(Cl)c2C)CC1 [1.0251],4.08^[a]
20,CCSC(=O)C1(NC(=O)c2sc(Cl)c(Br)c2C)CC1 [1.0253],3.77^[a]
21,Cc1c(C(=O)NC(C(=O)O)C2CC2)sc(Cl)c1Br (stereo not shown) [1.0255],2.67^[a]
22,CCOC(=O)C1(NC(=O)c2sc(C#N)c(Cl)c2C)CC1 [1.0258],2.57^[a]
23,COC(=O)C(NC(=O)c1cc(Cl)c(Br)s1)C1CC1 (stereo not shown) [1.0259],3.01^[a]
24,COC(=O)C(NC(=O)c1cc(Br)c(Cl)s1)C1CC1 (stereo not shown) [1.0260],3.07^[a]
25,COC(=O)C(NC(=O)c1sc(C#N)c(Br)c1C)C1CC1 (stereo not shown) [1.0261],2.75^[a]
26,COC(=O)C(NC(=O)c1sc(Br)c(Br)c1I)C1CC1 (stereo not shown) [1.0262],3.81^[a]
27,O=C(NC1(C(=O)O)CC1)c1sc(Cl)c(Br)c1Br [1.0265],2.41^[a]
28,COC(=O)C(NC(=O)c1sc(Cl)c(Br)c1C)(C1CC1)C1CC1 [1.0269],3.98^[a]

# More lines, now with the values ahead:
row,LogP,SMILES
1,4.47^[a],CCOC(=O)C(CCSC)NC(=O)c1sc(Cl)c(Br)c1Cl (stereo not shown) [1.0186]
2,5.04^[a],CCOC(=O)C(Cc1ccccc1)NC(=O)c1sc(Cl)c(Br)c1Cl (stereo not shown) [1.0187]
3,3.47^[a],CCOC(=O)CCNC(=O)c1sc(Cl)c(Cl)c1I [1.0189]
4,3.84^[a],COC(=O)C(NC(=O)c1sc(Cl)c(Cl)c1I)C1CC1 (stereo not shown) [1.0190]
5,4.12^[a],CCOC(=O)C1(NC(=O)c2sc(Cl)c(Cl)c2I)CCC1 [1.0191]
6,3.64^[a],COC(=O)C(CC(F)F)NC(=O)c1sc(Cl)c(Cl)c1I (stereo not shown) [1.0192]
7,2.67^[a],N#CCNC(=O)c1sc(Br)c(Cl)c1Cl [1.0193]
8,2.86^[a],COC(=O)CNC(=O)c1sc(Br)c(Cl)c1Cl [1.0194]
9,3.28^[a],CCOC(=O)CNC(=O)c1sc(Br)c(Cl)c1Cl [1.0195]
10,3.47^[a],CCOC(=O)CCNC(=O)c1sc(Br)c(Cl)c1Cl [1.0196]
11,3.47^[a],CCOC(=O)C1(NC(=O)c2sc(Br)c(Cl)c2Cl)CC1 [1.0197]
12,3.87^[a],COC(=O)C(NC(=O)c1sc(Br)c(Cl)c1Cl)C1CC1 (stereo not shown) [1.0198]
13,4.26^[a],CCOC(=O)C1(NC(=O)c2sc(Br)c(Cl)c2Cl)CCC1 [1.0199]
14,4.89^[a],CCOC(=O)C(NC(=O)c1sc(Br)c(Cl)c1Cl)C(C)C (stereo not shown) [1.0200]
15,3.60^[a],COC(=O)C(CC(F)F)NC(=O)c1sc(Br)c(Cl)c1Cl (stereo not shown) [1.0201]
16,5.16^[a],CCOC(=O)C(CC(C)C)NC(=O)c1sc(Br)c(Cl)c1Cl (stereo not shown) [1.0202]
17,4.44^[a],CCOC(=O)C(CCSC)NC(=O)c1sc(Br)c(Cl)c1Cl (stereo not shown) [1.0203]
18,5.00^[a],CCOC(=O)C(Cc1ccccc1)NC(=O)c1sc(Br)c(Cl)c1Cl (stereo not shown) [1.0204]
19,3.35^[a],CCOC(=O)CNC(=O)c1sc(Cl)c(Br)c1Br [1.0208]
20,3.57^[a],CCOC(=O)CCNC(=O)c1sc(Cl)c(Br)c1Br [1.0209]
21,3.48^[a],CCOC(=O)C1(NC(=O)c2sc(Cl)c(Br)c2Br)CC1 [1.0210]
22,4.89^[a],CCOC(=O)C(NC(=O)c1sc(Cl)c(Br)c1Br)C(C)C (stereo not shown) [1.0213]
23,3.64^[a],COC(=O)C(CC(F)F)NC(=O)c1sc(Cl)c(Br)c1Br (stereo not shown) [1.0214]

row,LogP,SMILES
1,5.18^[a],CCOC(=O)C(CC(C)C)NC(=O)c1sc(Cl)c(Br)c1Br (stereo not shown) [1.0215]
2,4.40^[a],CCOC(=O)C(CCSC)NC(=O)c1sc(Cl)c(Br)c1Br (stereo not shown) [1.0216]
3,5.04^[a],CCOC(=O)C(Cc1ccccc1)NC(=O)c1sc(Cl)c(Br)c1Br (stereo not shown) [1.0217]
4,1.77^[a],O=C(NC(CO)C(=O)O)c1sc(Br)c(Br)c1F (stereo not shown) [1.0228]
5,3.34^[a],CC(C)CC(NC(=O)c1sc(Br)c(Br)c1F)C(=O)O (stereo not shown) [1.0229]
6,1.65^[a],NC(=O)CCC(NC(=O)c1sc(Br)c(Br)c1F)C(=O)O (stereo not shown) [1.0230]
7,2.72^[a],CCOC(=O)C1(NC(=O)c2sc(Cl)c(Cl)c2C#N)CC1 [1.0232]
8,2.28^[a],CC(NC(=O)c1sc(Br)c(Br)c1F)C(=O)O (stereo not shown) [1.0233]
9,2.97^[a],CC(C)C(NC(=O)c1sc(Br)c(Br)c1F)C(=O)O (stereo not shown) [1.0234]
10,2.52^[a],CCOC(=O)CNC(=O)c1sc(Cl)c(Cl)c1C#N [1.0236]
11,3.59^[a],CCOC(=O)C(CCSC)NC(=O)c1cc(Cl)c(Br)s1 (stereo not shown) [1.0237]
12,3.65^[a],CCOC(=O)C(CCSC)NC(=O)c1cc(Br)c(Cl)s1 (stereo not shown) [1.0238]
13,3.34^[a],CCOC(=O)C(CCSC)NC(=O)c1sc(C#N)c(Br)c1C (stereo not shown) [1.0242]
14,3.85^[a],CCOC(=O)C(CC(C)C)NC(=O)c1sc(C#N)c(Br)c1C (stereo not shown) [1.0245]
15,3.74^[a],CCSC(=O)C1(NC(=O)c2sc(Br)c(Cl)c2C)CC1 [1.0252]
16,2.64^[a],Cc1c(C(=O)NC(C(=O)O)C2CC2)sc(Br)c1Cl (stereo not shown) [1.0254]
17,1.66^[a],NC(=O)CC(NC(=O)c1sc(Br)c(Br)c1F)C(=O)O (stereo not shown) [1.0256]
18,3.07^[a],CCOC(=O)C(C#N)NC(=O)c1sc(Br)c(Br)c1F (stereo not shown) [1.0257]
19,3.84^[a],COC(=O)C(NC(=O)c1sc(Cl)c(Cl)c1Br)C1CC1 (stereo not shown) [1.0263]
20,3.84^[a],COC(=O)C(NC(=O)c1sc(Br)c(Br)c1Cl)C1CC1 (stereo not shown) [1.0264]
21,3.81^[a],CCOC(=O)C(NC(=O)c1sc(Cl)c(Br)c1C)C1CC1 (stereo not shown) [1.0266]
22,3.07^[a],COC(=O)C(NC(=O)c1sc(Cl)c(Br)c1C)C(=O)OC [1.0267]
23,4.30^[a],CCOC(=O)C(CC1CC1)NC(=O)c1sc(Cl)c(Br)c1C (stereo not shown) [1.0268]

# Same assay, conditions: method marked [a]
row,SMILES,LogP
1,CCOC(=O)C1(NC(=O)c2sc(Cl)c(Br)c2C)CN(C(=O)OC(C)(C)C)C1 [1.0271],4.23^[a]
2,COC(=O)C(NC(=O)c1sc(Br)c(Cl)c1C)(C1CC1)C1CC1 [1.0275],3.94^[a]
3,COC(=O)C1(NC(=O)c2cc(Br)c(C#N)s2)CC1 [1.0281],2.10^[a]
4,N#Cc1sc(C(=O)NC2(C(=O)O)CC2)cc1Br [1.0282],1.70^[a]
5,COC(=O)C1(NC(=O)c2sc(C#N)c(Cl)c2C)CC1 [1.0283],2.21^[a]
6,O=C(NC(C(=O)O)C1CC1)c1cc(Cl)c(Br)s1 (stereo not shown) [1.0284],2.41^[a]
7,O=C(NC(C(=O)O)C1CC1)c1cc(Br)c(Cl)s1 (stereo not shown) [1.0285],2.44^[a]
8,Cc1c(C(=O)NC(C(=O)O)C2CC2)sc(C#N)c1Br (stereo not shown) [1.0286],2.19^[a]
9,O=C(NC(C(=O)O)C1CC1)c1sc(Cl)c(Cl)c1Br (stereo not shown) [1.0287],2.95^[a]
10,O=C(NC(C(=O)NC(C(=O)O)C1CC1)C1CC1)c1cc(Br)c(Cl)s1 (stereo not shown) [1.0288],2.49^[a]
11,O=C(NC(C(=O)NC(C(=O)O)C1CC1)C1CC1)c1sc(Cl)c(Cl)c1Br (stereo not shown) [1.0289],2.97^[a]

# Results, then the compound that gave them:
row,LogP,SMILES
1,3.87^[a],CCOC(=O)C(NC(=O)c1sc(Cl)c(Br)c1C)C(=O)OCC [1.0270]
2,3.77^[a],CCOC(=O)C(NC(=O)c1sc(Br)c(Cl)c1C)C1CC1 (stereo not shown) [1.0272]
3,3.04^[a],COC(=O)C(NC(=O)c1sc(Br)c(Cl)c1C)C(=O)OC [1.0273]
4,4.26^[a],CCOC(=O)C(CC1CC1)NC(=O)c1sc(Br)c(Cl)c1C (stereo not shown) [1.0274]
5,3.84^[a],CCOC(=O)C(NC(=O)c1sc(Br)c(Cl)c1C)C(=O)OCC [1.0276]
6,4.19^[a],CCOC(=O)C1(NC(=O)c2sc(Br)c(Cl)c2C)CN(C(=O)OC(C)(C)C)C1 [1.0277]
7,1.66^[a],COC(=O)[C@H](CCCNC(=N)N)NC(=O)c1sc(Br)c(Br)c1F [1.0278]
8,4.05^[a],CCOC(=O)C(CC(C)C)NC(=O)c1sc(Cl)c(Cl)c1C#N (stereo not shown) [1.0279]
9,3.77^[a],CCOC(=O)C(NC(=O)c1sc(Cl)c(Cl)c1C#N)C(C)C (stereo not shown) [1.0280]
